The target in one test is RET kinase (Homo sapiens, UniProt P07949). The test is described as follows: In-vitro enzyme activity test, RET kinase. In kind it is biochemical. Particulars: ATP 20 μM; 10 concentrations 3 μM to 0.152 nM. The method, then: (§1) The enzyme activity was detected by a Z′-LYTE™ kinase test, and inhibitory effects of the compounds onRET and RET (V804M) kinases were evaluated with an ICs value of each compound as an index.
(§2) The compounds used for RET and RET (V804M) kinase tests were diluted 3-fold, in 10 concentration gradients ranging from 3 μM to 0.152 nM; and the content of DMSO in detection reaction was 1%.
(§3) Basic reaction buffer, 20 mM 4-(2-hydroxyethyl)piperazine-1-ethanesulfonic acid (Hepes) buffer (pH 7.5), 10 mM MgCl2. 1 mM 1,2-bis[2-[bis(carboxymethyl)amino]ethoxy]ethane (EGTA), 0.02% polyoxyethylene lauryl ether (Brij35), 0.02 mg/mL bovine serum albumin, 0.1 mM of Na3VO4, 2 mM dithiothreitol (DTT) and 1% DMSO.
(§4) The compounds to be tested were dissolved in a 100% DMSO system to be diluted to 10 mM for further use. The solution was diluted by using Integra Viaflo Assist.
(§5) Test conditions: concentrations of RET kinase, peptide substrate CHKtide and adenosine triphosphate (ATP) were […], 1000 μM and 20 μM, respectively, and concentrations of RET (V804M) kinase, substrate peptide and ATP were […], 1000 μM and 30 μM, respectively.
(§6) Reaction process: compound solutions of different concentrations were added to a kinase/peptide solution prepared according to the test conditions, the obtained solution was incubated at room temperature for 20 minutes, and then 33P-ATP of corresponding concentrations were added, and the obtained solution was incubated at room temperature for 120 minutes. The radioactivity was detected by a filter-binding method.
(§7) The reaction was terminated by adding phosphoric acid (concentration, 0.5%) into a kinase reaction solution, and plate reading was carried out with an Envision instrument.
(§8) Data were converted into phosphorylation rate and inhibition rate, and the parametric curve was fitted by using GraphPad Software to obtain IC50 data of the compounds.

For the next test, the target named is RET (V804M) kinase (Homo sapiens, UniProt P07949, V804M). The test is described as follows: In-vitro enzyme activity test, RET (V804M) kinase. It counts as biochemical. Particulars: ATP 30 μM; 10 concentrations 3 μM to 0.152 nM. The method, then: as §1, §2, §3, §4, §5, §6, §7, §8

Structures can show the parent of a compound that is named as a salt.

The values that follow come from US12297197B2, “Pyrazolopyridine compound as RET inhibitor and application thereof” (GUANGZHOU BAIYUNSHAN PHARMACEUTICAL HOLDINGS CO., LTD. …, priority 2019, dated 2025).

Chain of RET kinase (P07949 29-1114): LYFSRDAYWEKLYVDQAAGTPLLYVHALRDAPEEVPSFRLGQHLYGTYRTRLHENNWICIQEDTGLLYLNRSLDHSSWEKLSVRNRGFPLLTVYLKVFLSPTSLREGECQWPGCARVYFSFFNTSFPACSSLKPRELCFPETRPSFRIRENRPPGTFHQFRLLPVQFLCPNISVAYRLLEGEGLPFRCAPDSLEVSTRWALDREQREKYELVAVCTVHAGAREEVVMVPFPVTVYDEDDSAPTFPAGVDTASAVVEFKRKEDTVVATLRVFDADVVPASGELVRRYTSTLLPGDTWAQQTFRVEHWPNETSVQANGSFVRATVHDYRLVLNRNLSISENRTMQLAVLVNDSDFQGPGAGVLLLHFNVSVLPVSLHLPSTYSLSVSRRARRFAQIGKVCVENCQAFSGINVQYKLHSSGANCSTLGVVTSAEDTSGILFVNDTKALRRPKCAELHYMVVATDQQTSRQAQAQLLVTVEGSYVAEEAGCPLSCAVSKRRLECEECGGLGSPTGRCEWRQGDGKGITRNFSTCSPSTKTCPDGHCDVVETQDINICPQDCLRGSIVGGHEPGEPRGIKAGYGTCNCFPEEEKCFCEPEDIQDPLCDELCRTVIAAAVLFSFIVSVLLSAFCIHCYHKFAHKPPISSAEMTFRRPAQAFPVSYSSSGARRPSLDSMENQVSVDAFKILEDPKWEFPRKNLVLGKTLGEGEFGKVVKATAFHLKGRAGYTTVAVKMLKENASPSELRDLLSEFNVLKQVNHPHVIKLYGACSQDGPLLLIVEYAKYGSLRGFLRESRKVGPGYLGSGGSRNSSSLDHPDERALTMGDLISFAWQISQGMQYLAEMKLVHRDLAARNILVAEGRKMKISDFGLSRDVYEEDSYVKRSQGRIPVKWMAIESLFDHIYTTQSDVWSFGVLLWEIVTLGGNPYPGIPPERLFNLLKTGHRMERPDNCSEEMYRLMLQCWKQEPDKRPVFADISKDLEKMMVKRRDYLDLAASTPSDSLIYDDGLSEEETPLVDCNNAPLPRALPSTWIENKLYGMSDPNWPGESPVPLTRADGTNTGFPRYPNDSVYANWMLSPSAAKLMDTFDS
Chain of RET (V804M) kinase (P07949 29-1114 V804M): as the sequence (P07949 29-1114) above, with V776M counted along it

On to `N#Cc1cnn2cc(C3CC3)cc(-c3ccc(N4CCN(Cc5c(F)cccc5F)CC4)nc3)c12` [Compound 1], for which the IC50 against RET kinase was 3.66 nM; on RET (V804M) kinase, 36.1 nM.
At RET kinase, `N#Cc1cnn2cc(N3CCOCC3)cc(-c3ccc(N4CC5CC(C4)N5Cc4cnc5[nH]ccc5c4Cl)nc3)c12` [Compound 16] showed a concentration for half-maximal inhibition (IC50) of 6.08 nM. That is a single-digit nanomolar value.
In the case of `N#Cc1cnn2cc(C3=CCOCC3)cc(-c3ccc(N4CC5CC(C4)N5Cc4cnc5[nH]ccc5c4)nc3)c12` [Compound 35], the values for the IC50 against RET kinase and against RET (V804M) kinase were 1.57 nM and 5.47 nM, respectively.
For `COc1cnc(CN2C3CC2CN(c2ccc(-c4cc(C5=CCOCC5)cn5ncc(C#N)c45)cn2)C3)cn1` [Compound 36], the values for the IC50 on RET kinase and against RET (V804M) kinase were 1.22 nM and 3.79 nM, respectively.
On to `N#Cc1cnn2cc(C3=CCOCC3)cc(-c3ccc(N4CC5CC(C4)N5Cc4ccc5[nH]cnc5c4)nc3)c12` [Compound 37], for which the IC50 against RET kinase came out at 2.3 nM; against RET (V804M) kinase it was 15.6 nM.
For the compound `N#Cc1cnn2cc(C3=CCOCC3)cc(-c3ccc(N4CC5CC(C4)N5Cc4ccc5[nH]ccc5c4)nc3)c12` [Compound 38], the figures for the IC50 on RET kinase and against RET (V804M) kinase were 1.21 nM and 5.93 nM, respectively.
For `COc1ccc(CN2C3CC2CN(c2ccc(-c4cc(C5=CCNC(C)C5)cn5ncc(C#N)c45)cn2)C3)cn1` (stereo not drawn) [Compound 41], the IC50 against RET kinase turned out to be 3.09 nM; at RET (V804M) kinase, 11.3 nM.
On to `COc1ccc(CN2C3CC2CN(c2ccc(-c4cc(C5=CCC(C)(O)CC5)cn5ncc(C#N)c45)cn2)C3)cn1` (stereo not drawn) [Compound 42], for which it took 1.13 nM to reach half-maximal inhibition at RET kinase (IC50).
Turning to `N#Cc1cnn2cc(C3=CCOCC3)cc(-c3cnc(N4CC5CC(C4)N5Cc4ccc5[nH]ccc5c4)cn3)c12` [Compound 45], the IC50 at RET kinase amounted to 1.83 nM; on RET (V804M) kinase it was 7.53 nM.
Compound `COc1ccc(CN2C3CC2CN(c2ccc(-c4cc(C5=CC(C)(C)OCC5)cn5ncc(C#N)c45)cn2)C3)cn1` [Compound 50] gave an IC50 against RET kinase of 1.87 nM. This lies in the single-digit nanomolar range.
Consider `COc1ccc(CN2C3CC2CN(c2ccc(-c4cc(C5=CCOC(C)(C)C5)cn5ncc(C#N)c45)cn2)C3)cn1` [Compound 51], for which the 50% inhibitory concentration (IC50) against RET kinase turned out to be 1.73 nM.
In turn, `COc1ccc(CN2C3CC2CN(c2ccc(-c4cc(N5CC[C@@H](O)C5)cn5ncc(C#N)c45)cn2)C3)cn1` [Compound 70] came in with a 50% inhibitory concentration (IC50) on RET kinase of 1.09 nM.
At RET kinase, `COc1ccc(CN2C3CC2CN(c2ccc(-c4cc(N5CC[C@H](O)C5)cn5ncc(C#N)c45)cn2)C3)cn1` [Compound 71] gave a half-maximal inhibitory concentration (IC50) of 0.59 nM.
As to `CN1CCC(c2cc(-c3ccc(N4CCN(Cc5c(F)cccc5F)CC4)nc3)c3c(C#N)cnn3c2)CC1` [Hydrochloride of compound 2], the concentration for half-maximal inhibition (IC50) against RET kinase was 95.5 nM; at RET (V804M) kinase it was 1410 nM.
Take `C[C@@H](C(=O)N1CCN(c2ccc(-c3cc(N4CCOCC4)cn4ncc(C#N)c34)cn2)CC1)c1ccccc1` [Hydrochloride of compound 4]: the half-inhibitory concentration (IC50) on RET kinase was 2.42 nM; at RET (V804M) kinase it was 22.7 nM.
As for `COc1ccc(CN2CCN(c3ccc(-c4cc(C5=CCOCC5)cn5ncc(C#N)c45)cn3)CC2)cn1` [Hydrochloride of compound 29], at RET kinase, the IC50 came out at 1.04 nM.
Consider `N#Cc1cnn2cc(C3=CCNCC3)cc(-c3ccc(N4CCN(Cc5c(F)cccc5F)CC4)nc3)c12` [Tfifluoroacetate of compound 25], for which the IC50 at RET kinase was determined as 1.62 nM; at RET (V804M) kinase it was 11 nM.
Compound `CN1CCC(c2cc(-c3ccc(N4CCN(Cc5c(F)cccc5F)CC4)nc3)c3c(C#N)cnn3c2)C1` (stereo not drawn) [Trifluoroacetate of compound 6] showed an IC50 on RET kinase of 34.8 nM. In other words, the double-digit nanomolar range.
For the compound `CCN1CCC(c2cc(-c3ccc(N4CCN(Cc5c(F)cccc5F)CC4)nc3)c3c(C#N)cnn3c2)C1` (stereo not drawn) [Trifluoroacetate of compound 7], the half-maximal inhibitory concentration (IC50) stood at 239 nM on RET kinase and 1930 nM against RET (V804M) kinase.
As for `COc1ccc(CN2C3CC2CN(c2cnc(-c4cc(C5CC5)cn5ncc(C#N)c45)cn2)C3)cn1` [Trifluoroacetate of compound 8], the values for the half-maximal inhibitory concentration (IC50) against RET kinase and against RET (V804M) kinase were 1.15 nM and 3.14 nM, respectively.
In the same order, the values of `COc1ccc(CN2C3CC2CN(c2ccc(-c4cc(N5CCOCC5)cn5ncc(C#N)c45)cn2)C3)cn1` [Trifluoroacetate of compound 9] are 0.97 nM and 1.8 nM.
Take `COc1ccc(CN2C3CC2CN(c2ccc(-c4cc(N5CCNCC5)cn5ncc(C#N)c45)cn2)C3)cn1` [Trifluoroacetate of compound 10]: the IC50 against RET kinase came out at 0.69 nM; at RET (V804M) kinase, 3.79 nM.
`COc1c(F)cc(CN2C3CC2CN(c2ccc(-c4cc(N5CCOCC5)cn5ncc(C#N)c45)cn2)C3)cc1F` [Trifluoroacetate of compound 11]: the IC50 turned out to be 1.3 nM at RET kinase and 0.61 nM against RET (V804M) kinase.
On the same counts, the results for `CC(C)Oc1ccc(CN2C3CC2CN(c2ccc(-c4cc(N5CCOCC5)cn5ncc(C#N)c45)cn2)C3)cn1` [Trifluoroacetate of compound 12] are 0.61 nM and 0.51 nM.
`N#Cc1cnn2cc(N3CCOCC3)cc(-c3ccc(N4CC5CC(C4)N5Cc4cnc5c(c4)OCO5)nc3)c12` [Trifluoroacetate of compound 13]: the IC50 on RET kinase turned out to be 1.57 nM; on RET (V804M) kinase it was 3.49 nM.
`N#Cc1cnn2cc(N3CCOCC3)cc(-c3ccc(N4CC5CC(C4)N5Cc4cnc5[nH]ccc5c4)nc3)c12` [Trifluoroacetate of compound 14]: the half-maximal inhibitory concentration (IC50) against RET kinase was 0.72 nM; against RET (V804M) kinase, 0.48 nM.
`COc1ncc(CN2C3CC2CN(c2ccc(-c4cc(N5CCOCC5)cn5ncc(C#N)c45)cn2)C3)cc1F` [Trifluoroacetate of compound 15] registered a half-maximal inhibitory concentration (IC50) against RET kinase of 1.21 nM.
For `CCN1CCN(c2cc(-c3ccc(N4CC5CC(C4)N5Cc4ccc(OC)nc4)nc3)c3c(C#N)cnn3c2)CC1` [Trifluoroacetate of compound 17], the 50% inhibitory concentration (IC50) against RET kinase is 5.25 nM.
At RET kinase, `COc1ccc(CN2C3CC2CN(c2ccc(-c4cc(N5CCN(C)C(=O)C5)cn5ncc(C#N)c45)cn2)C3)cn1` [Trifluoroacetate of compound 19] came in with a concentration for half-maximal inhibition (IC50) of 2.35 nM.
As for `COc1ccc(CN2C3CC2CN(c2ccc(-c4cc(N5CCN(C(C)=O)CC5)cn5ncc(C#N)c45)cn2)C3)cn1` [Trifluoroacetate of compound 20], at RET kinase, the IC50 worked out at 0.9 nM.
Same read-out and setting: as for `COc1ccc(CN2C3CC2CN(c2ccc(-c4cc(N5CCC(C)(O)CC5)cn5ncc(C#N)c45)cn2)C3)cn1` [Trifluoroacetate of compound 21], the figure is 1.98 nM.
As for `N#Cc1cnn2cc(C3=CCOCC3)cc(-c3ccc(N4CCN(Cc5c(F)cccc5F)CC4)nc3)c12` [Trifluoroacetate of compound 22], the IC50 on RET kinase was determined as 0.47 nM; against RET (V804M) kinase, 2.04 nM.
On RET kinase, `N#Cc1cnn2cc(C3=CCOCC3)cc(-c3ccc(N4CC5CC(C4)N5Cc4cnc5c(c4)OCO5)nc3)c12` [Trifluoroacetate of compound 44] gave a half-inhibitory concentration (IC50) of 2.34 nM.
Consider `COc1ccc(CN2C3CC2CN(c2ccc(-c4cc(C5=CCN(C)CC5)cn5ncc(C#N)c45)cn2)C3)cn1` [Trifluoroacetate of compound 46], for which half-maximal inhibition at RET kinase (IC50) required 1.16 nM.
`COc1ccc(CN2C3CC2CN(c2ccc(-c4cc(C5=CCC6(CC5)COC6)cn5ncc(C#N)c45)cn2)C3)cn1` [Trifluoroacetate of compound 47]: on RET kinase, 0.63 nM corresponded to half-maximal inhibition (IC50).
With `COc1ccc(CN2C3CC2CN(c2ccc(-c4cc(C5=CCNC(C)(C)C5)cn5ncc(C#N)c45)cn2)C3)cn1` [Trifluoroacetate of compound 48], the midpoint of inhibition on RET kinase, the IC50, lay at 2.13 nM. This IC50 lies about 3.4-fold higher than the previous one.
On RET kinase, `COc1ccc(CN2C3CC2CN(c2ccc(-c4cc(C5=CCOC5)cn5ncc(C#N)c45)cn2)C3)cn1` [Trifluoroacetate of compound 54] came in with an IC50 of 2.42 nM.
In the case of `N#Cc1cnn2cc(C3=CCOCC3)cc(-c3ccc(N4CC5CC(C4)N5Cc4ccc(C(F)(F)F)nc4)nc3)c12` [Trifluoroacetate of compound 56], on RET kinase, the IC50 was found to be 0.96 nM.
Consider `N#Cc1cnn2cc(N3CC[C@@H](F)C3)cc(-c3ccc(N4CC5CC(C4)N5Cc4cnc5[nH]ccc5c4)nc3)c12` [Trifluoroacetate of compound 73], for which, on RET kinase, the 50% inhibitory concentration (IC50) stood at 0.72 nM.
As to `COc1ccc(CN2C3CC2CN(c2ccc(-c4cc(N5CCC(OC)C5)cn5ncc(C#N)c45)cn2)C3)cn1` (stereo not drawn) [Trifluoroacetate of compound 77], the IC50 against RET kinase worked out at 4.39 nM.
Still for that read-out and setting: the result for `COc1ccc(CN2C3CC2CN(c2ccc(-c4cc(N5CCC(C)(O)C5)cn5ncc(C#N)c45)cn2)C3)cn1` (stereo not drawn) [Trifluoroacetate of compound 82] reads 2.34 nM.
Same read-out and setting: the result for `N#Cc1cnn2cc(C3=CCOCC3)cc(-c3ccc(N4CC5CC(C4)N5Cc4ccnc5c4OCO5)nc3)c12` [Triftuoroacetate of compound 43] reads 0.72 nM.
For the compound `COc1ccc(CN2C3CC2CN(c2ccc(-c4cc(N5CC[C@H](OC)C5)cn5ncc(C#N)c45)cn2)C3)cn1` [compound 78], at RET kinase, the IC50 worked out at 0.77 nM. This IC50 and that of the compound before are within 1.5-fold of each other.
Still for that read-out and setting: as for `COc1ccc(CN2C3CC2CN(c2ccc(-c4cc(N5CC[C@@H](OC)C5)cn5ncc(C#N)c45)cn2)C3)cn1` [compound 79], the figure is 1.39 nM.

The term IC50 denotes the concentration that inhibits the measured activity by half. Low values mean higher potency, high ones lower potency.
